Measured values as given in patent US8889876B2, “Histone deacetylase inhibitors and uses thereof” (Jiangsu Hengyi Pharmaceutical Co., Ltd., priority 2008, dated 2014).
Blank lines part the entries; values can stand above or below the compound they belong to.

How the values were obtained:
[1] = system: PANC-1 human pancreatic cancer cells; test: CCK-8 proliferation inhibition, PANC-1; format: cell-based; details: for inhibition at 10 µM / inhibition at 100 µM: Homo sapiens; for inhibition at 10 µM: PANC-1, 10 μM; for inhibition at 100 µM: PANC-1, 100 μM
Summary of the method: (§1)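 Compounds tested at two concentrations, 10 μM and 100 μM, with inhibition rates from CCK-8 viability read-out.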

[2] = system: Jurkat E6-1 human T-cell lymphoma; test: CCK-8 proliferation inhibition, Jurkat E6-1; format: cell-based; details: for inhibition at 10 µM / inhibition at 100 µM: Homo sapiens; for inhibition at 10 µM: Jurkat E6.1, 10 μM; for inhibition at 100 µM: Jurkat E6.1, 100 μM
Summary of the method: as §1

[3] = system: Hut78 T-cell Leukemia cell; test: CCK-8 proliferation inhibition, Hut78; format: cell-based; details: for inhibition at 10 µM / inhibition at 100 µM: Homo sapiens, read-out: Hut-78 (inhibition %); for inhibition at 10 µM: HuT78, 10 μM; for inhibition at 100 µM: HuT78, 100 μM
Summary of the method: as §1

[4] = system: A549 human lung cancer cells; test: CCK-8 proliferation inhibition, A549; format: cell-based; details: CCK-8 method; for inhibition at 10 µM / inhibition at 100 µM: Homo sapiens, A549
Summary of the method: as §1

[5] = system: MDA-MB-435s human breast cancer cells; test: CCK-8 proliferation inhibition, MDA-MB-435s; format: cell-based; details: CCK-8 method; for inhibition at 10 µM / inhibition at 100 µM: Homo sapiens, MDA-MB-435S
Summary of the method: as §1

[6] = system: PC-3 human prostate cancer; test: CCK-8 proliferation inhibition, PC-3; format: cell-based; details: CCK-8 method; for inhibition at 10 µM / inhibition at 100 µM: Homo sapiens
Summary of the method: as §1

[7] = system: Colo320 human rectal cancer cells; test: CCK-8 proliferation inhibition, Colo320; format: cell-based; details: CCK-8 method; for inhibition at 10 µM / inhibition at 100 µM: Homo sapiens, COLO 320
Summary of the method: as §1

[8] = system: K562 human chronic myeloid leukemia cells; test: CCK-8 proliferation inhibition, K562; format: cell-based; details: for inhibition at 10 µM / inhibition at 100 µM: Homo sapiens; for inhibition at 10 µM: K562, 10 μM; for inhibition at 100 µM: K562, 100 μM
Summary of the method: as §1

histone deacetylase [9] = test: in vitro inhibition of histone deacetylase by HDAC inhibitor screening kit (Biovision K340-100); format: biochemical
Description: An assay for determining the in vitro inhibition activity of the compound on histone deacetylase is conducted according to the specification of HDAC inhibitor screeing kid (Biovision Company/Catalog #K340-100). […]

[10] = system: Hep3B2.1-7 human liver cancer cells; test: CCK-8 proliferation inhibition, Hep3B2.1-7; format: cell-based; details: CCK-8 method; for inhibition at 10 µM / inhibition at 100 µM: Homo sapiens, Hep3B
Summary of the method: as §1

[11] = system: A549 (human lung adenocarcinoma cells); test: MTT cytotoxicity to tumor cell strains, A549; format: cell-based
Description: (§2) The cytotoxicity of samples to tumor cell strains is determined through MTT.

[12] = system: Hut 78 (T-cell Leukemia cell); test: MTT cytotoxicity to tumor cell strains, Hut 78; format: cell-based; details: Hut 78, MTT
Description: as §2

[13] = system: K562: human chronic myeloid leukemia cell strain; test: MTT cytotoxicity to tumor cell strains, K562; format: cell-based
Description: as §2

histone deacetylase [14] = test: in vitro inhibition activity on histone deacetylase (rat liver homogenate, MAL fluorescent substrate); format: biochemical, rats; details: n = 4, 37° C., 16 hours
Description: A 96-well plate (black) for determining […] is made by Costar Company of U.S. The histone deacetylase is obtained by homogenization of liver of rats. The histone deacetylase reacts with small molecular fluorescent substrate MAL such that the substrate MAL is deacetylated to become ML.
The compound to be detected is dissolved with 200 μL of DMSO. The stock solution of the compound to be detected is diluted with PBS to a concentration of the working solution. The histone deacetylase, the MAL fluorescent substrate and the compound to be detected are mixed in a water bath at 37° C. and reacted 16 hours. The final concentration of the compound to be detected is: MS275 and its similar compound: 10, 100 μmol/.
The reaction solution is extracted with ethyl acetate. The extract is pumped in vacuum and thereto added 110 μL of methanol (40%). Taking 50 μL/well to a 96-well plate and making a fluorescent detection at 325/390 nm.
The negative control wherein histone deacetylase is not added to the reaction is 100% inhibition. The control that only contains histone deacetylase without any inhibitor is the background (0% inhibition). The inhibition rate of the sample to be detected=(the detected fluorescent value−the background)/(the fluorescent value of the negative control−background)×100%
The inhibition rate and the standard deviation in the results are the average inhibition percentage and the standard deviation of each parallel well in each dosage group.

Inhibition rate(%) (histone deacetylase [9]; 3.91 μM): 14.3%
Inhibition rate(%) (histone deacetylase [9]; 62.5 μM): 48.0%
Inhibition rate(%) (histone deacetylase [9]; 2 mM): 55.3%
Compound: COc1ccc(/C=C/C(=O)NCc2ccc(C(=O)Nc3cccnc3N)cc2)cc1OC [V-93, N-(2-amino-3-pyridyl)-4-[(3,4-dimethoxycinnamoyl)aminomethyl]benzamide]
inhibition at 10 µM [1]: 9.8%
inhibition at 100 µM [1]: 16.6%
inhibition at 10 µM [2]: 23.4%
inhibition at 100 µM [2]: 93.1%
inhibition at 10 µM [3]: 27.2%
inhibition at 100 µM [3]: 64.7%
inhibition at 10 µM ([4]; compound concentration 10 μM): -2.5%
inhibition at 100 µM ([4]; compound concentration 100 μM): 3.4%
inhibition at 10 µM ([5]; compound concentration 10 μM): 16.3%
inhibition at 100 µM ([5]; compound concentration 100 μM): 48.5%
inhibition at 10 µM ([6]; compound concentration 10 μM): 41.6%
inhibition at 100 µM ([6]; compound concentration 100 μM): 80.6%
inhibition at 10 µM ([7]; compound concentration 10 μM): 6.1%
inhibition at 100 µM ([7]; compound concentration 100 μM): 13.1%
inhibition at 10 µM [8]: 23.7%
inhibition at 100 µM [8]: 67.3%
inhibition at 10 µM ([10]; compound concentration 10 μM): 4.9%
inhibition at 100 µM ([10]; compound concentration 100 μM): 26.8%

Inhibition rate(%) (histone deacetylase [9]; 3.91 μM): 17.2%
Inhibition rate(%) (histone deacetylase [9]; 62.5 μM): 46.7%
Inhibition rate(%) (histone deacetylase [9]; 2 mM): 90.6%
Compound: COc1cccc(COC(=O)NCc2ccc(C(=O)Nc3ccncc3N)cc2)c1 [V-95]
inhibition at 10 µM [1]: 7%
inhibition at 100 µM [1]: 48.7%
inhibition at 10 µM [2]: 21.6%
inhibition at 100 µM [2]: 93.8%
inhibition at 10 µM [3]: 8%
inhibition at 100 µM [3]: 58%
inhibition at 10 µM ([4]; compound concentration 10 μM): -12.6%
inhibition at 100 µM ([4]; compound concentration 100 μM): 48.3%
inhibition at 10 µM ([5]; compound concentration 10 μM): 4.2%
inhibition at 100 µM ([5]; compound concentration 100 μM): 72.5%
inhibition at 10 µM ([6]; compound concentration 10 μM): 30.6%
inhibition at 100 µM ([6]; compound concentration 100 μM): 80%
inhibition at 10 µM ([7]; compound concentration 10 μM): -1.9%
inhibition at 100 µM ([7]; compound concentration 100 μM): 68.8%
inhibition at 10 µM [8]: 50.6%
inhibition at 100 µM [8]: 71.9%
inhibition at 10 µM ([10]; compound concentration 10 μM): 16.7%
inhibition at 100 µM ([10]; compound concentration 100 μM): 72%

Inhibition rate(%) (histone deacetylase [9]; 3.91 μM): 14.0%
Inhibition rate(%) (histone deacetylase [9]; 62.5 μM): 42.2%
Inhibition rate(%) (histone deacetylase [9]; 2 mM): 85.0%
Compound: COc1ccc(COC(=O)NCc2ccc(C(=O)Nc3ccncc3N)cc2)cc1OC [V-96]
inhibition at 10 µM [1]: -0.4%
inhibition at 100 µM [1]: 64.8%
inhibition at 10 µM [2]: 15.4%
inhibition at 100 µM [2]: 83.4%
inhibition at 10 µM [3]: -0.4%
inhibition at 100 µM [3]: 41.7%
inhibition at 10 µM ([4]; compound concentration 10 μM): -6.2%
inhibition at 100 µM ([4]; compound concentration 100 μM): 33.4%
inhibition at 10 µM ([5]; compound concentration 10 μM): 1.9%
inhibition at 100 µM ([5]; compound concentration 100 μM): 69.6%
inhibition at 10 µM ([6]; compound concentration 10 μM): 27.8%
inhibition at 100 µM ([6]; compound concentration 100 μM): 53.3%
inhibition at 10 µM ([7]; compound concentration 10 μM): -0.8%
inhibition at 100 µM ([7]; compound concentration 100 μM): 27%
inhibition at 10 µM [8]: 41.1%
inhibition at 100 µM [8]: 61.6%
inhibition at 10 µM ([10]; compound concentration 10 μM): -0.9%
inhibition at 100 µM ([10]; compound concentration 100 μM): 35.2%

Inhibition rate(%) (histone deacetylase [9]; 3.91 μM): 6.5%
Inhibition rate(%) (histone deacetylase [9]; 62.5 μM): 22.1%
Inhibition rate(%) (histone deacetylase [9]; 2 mM): 39.2%
Compound: N-(2-amino-3-pyridyl)-4-[(4-methoxybenzyloxyacyl)aminomethyl]benzamide [V-11]
PANC-1 (inhibition %) ([1]; 10 μM): 1.1%
PANC-1 (inhibition %) ([1]; 100 μM): 35.2%
Jurkat E6-1 (inhibition %) ([2]; 10 μM): 26.4%
Jurkat E6-1 (inhibition %) ([2]; 100 μM): 91.0%
Hut-78 (inhibition %) ([3]; 10 μM): 10.7%
Hut-78 (inhibition %) ([3]; 100 μM): 60.3%
A549 (inhibition %) ([4]; compound concentration 10 μM): −7.4%
A549 (inhibition %) ([4]; compound concentration 100 μM): 24.9%
435s(inhibition %) ([5]; compound concentration 10 μM): −16.5%
435s(inhibition %) ([5]; compound concentration 100 μM): 85.4%
PC-3 (inhibition %) ([6]; compound concentration 10 μM): 8.1%
PC-3 (inhibition %) ([6]; compound concentration 100 μM): 49.8%
Colo320 (inhibition %) ([7]; compound concentration 10 μM): 8.9%
Colo320 (inhibition %) ([7]; compound concentration 100 μM): 48.5%
K562 (inhibition %) ([8]; 10 μM): 29.7%
K562 (inhibition %) ([8]; 100 μM): 82.6%
Hep3B (inhibition %) ([10]; compound concentration 10 μM): 8.1%
Hep3B (inhibition %) ([10]; compound concentration 100 μM): 53.2%

inhibition rate % average number (histone deacetylase [14]; dosage 10 μmol/L): 46.547%
inhibition rate % average number (histone deacetylase [14]; dosage 100 μmol/L): 70.300%
Compound: N-(2-amino-4-pyridyl)-4-[(2-naphthylmethoxyacyl)aminomethyl]benzamide [V-24]
Cell activity (IC50, μg/ml) A549 [11]: 7.11 µg/mL
Cell activity (IC50, μg/ml) Hut 78 [12]: 0.30 µg/mL
PANC-1 (inhibition %) ([1]; 10 μM): 8.0%
PANC-1 (inhibition %) ([1]; 100 μM): 7.8%
Jurkat E6-1 (inhibition %) ([2]; 10 μM): 37.2%
Jurkat E6-1 (inhibition %) ([2]; 100 μM): 22.1%
Hut-78 (inhibition %) ([3]; 10 μM): 26.2%
Hut-78 (inhibition %) ([3]; 100 μM): 20.7%
A549 (inhibition %) ([4]; compound concentration 10 μM): 48.7%
A549 (inhibition %) ([4]; compound concentration 100 μM): 65.7%
435s(inhibition %) ([5]; compound concentration 10 μM): 49.8%
435s(inhibition %) ([5]; compound concentration 100 μM): 50.4%
PC-3 (inhibition %) ([6]; compound concentration 10 μM): 5.1%
PC-3 (inhibition %) ([6]; compound concentration 100 μM): 3.4%
Colo320 (inhibition %) ([7]; compound concentration 10 μM): −2.3%
Colo320 (inhibition %) ([7]; compound concentration 100 μM): −17.1%
K562 (inhibition %) ([8]; 10 μM): 42.8%
K562 (inhibition %) ([8]; 100 μM): 29.7%
Cell activity (IC50, μg/ml) K562 [13]: 6.23 µg/mL
Hep3B (inhibition %) ([10]; compound concentration 10 μM): 24.8%
Hep3B (inhibition %) ([10]; compound concentration 100 μM): 13.5%
